Columns and labels:
[1] = Plasma drug concentration and pharmacokinetics after i.p. administration to SNL operated rats; format: in vivo, rat; conditions: for minimal plasma concentration associated with the antiallodynic effect: SNL rats; for CL/F / Cmax / MRT / Tmax / half-life: rat, ip
Method: 0.5% MC, and […] of blood were collected from the amputated tail tip at each of three time points after injection. Blood was withdrawn for group 1 at 15, 60 and 180 min after dosing; for group 2 at 30, 90 and 240 min after dosing and for group 3 at 45, 120 and 360 min after dosing. Plasma was immediately separated by centrifugation at 3000 g for 15 min and stored at −20° C. until analyzed.
Plasma levels of VPA and DID were determined by gas chromatography (GC). An HP5890 series II GC equipped with FID detector, HP7673 autosampler, for DID HP-5 capillary column (0.25 μm×15 m×0.25 mm) was used. The temperature program was as follows: injector temperature 250° C.; initial temperature, 60° C. for 3 min; gradient of 15° C. min-1 until 180° C.; hold 5 min. For each drug, plasma levels obtained from 3 rats at each time point were averaged. 25 μl of internal standard solution (50 mg L^−1 of VPD for the DID assay) and 200 μl of 0.1M NaOH were added to 50 μl of plasma. The mixture was vortexed, and 1 ml of chloroform was added. The phases were separated, and the chloroform was evaporated. The dry residue was redissolved in 50 μl of chloroform, and 1 μl was injected into the gas chromatograph. Calibration curves were prepared separately by spiking naïve rat plasma samples with 1.56, 2.5, 3.12, 6.25, 12.5, 25.0, 37.5, 50.0, 75.0 and 100.0 mg L^−1 of DID. The limit of quantification (LOQ) of the method was 1.56 μg/ml, and the coefficient of variation (CV %) was <15% at all analyzed concentrations including LOQ.
The temperature program was as follows: injector temperature 280° C.; oven temperature, 135° C. 30 μl of internal standard solution (250 mg L-1 of 1-methyl-1cyclohexane carboxylic acid, MCCA, in MeOH) and 125 μl of 5N Hydrochloric acid (HCl) were added to 250 μl of plasma. The mixture was vortexed, and 2 ml of chloroform was added. The phases were separated, and the 1 ml of NaOH was added. 200 μl of HCl 5N and 2 ml of chloroform were added to the aqueous phase. The organic layer was evaporated and dry residue was redissolved in 50 μl of chloroform, and 30 μl was injected into the gas chromatograph. […] LOQ of the method was 25 mg L-1, and the coefficient of variation (CV %) was <15% at all analyzed concentrations including LOQ.
PK parameters were determined by non-compartmental analysis using the pharmacokinetic software package WinNonlin, version 4.0.1 (SCI Software, Lexington, Ky., U.S.A.; Yamaoka, et al., 1978 (YAMAOKA, K., […], T., & UNO, T. (1978). Statistical moments in pharmacokinetics. J Pharmacokinet. Biopharm., 6, 547-558); Gibaldi & Perrier, 1982 (GIBALDI, M., & PERRIER, D. (1982). Pharmacokinetics (2nd ed.). pp. 199-219 Marcel Dekker: New York); Rowland & Tozer, 1995 (ROWLAND, M., & TOZER, T. (1995). Pharmacological Response. In: Clinical Pharamcokeintics. pp. 340-365) Baltimore: Williams & Wilkins)). The terminal half-life (t½) was calculated as 0.693/β, where β is the linear terminal slope of the concentration (C)-versus-time curve. The area under the C-versus-time curve (AUC) was calculated by trapezoidal rule with extrapolation to infinity. The mean residence time (MRT) was calculated from the quotient AUMC/AUC, where AUMC is the area under the concentration-time product versus time curve from zero to infinity. Total (apparent) clearance (CL/F) was calculated from the quotient of […] with F being the absolute bioavailability following i.p. administration. The apparent volume of distribution (Vβ/F) was calculated from the quotient of CL and β. The peak plasma concentration (Cmax) and the time to reach Cmax (tmax) were determined empirically by visual inspection.

[2] = system: motor performance (rotarod test); test: Neurological motor dysfunction tests (accelerating rotarod, observation for sedation); conditions: for motor performance, time to fall off the rotarod: n=6, vehicle 118.0±2.3; for effect on motor performance (rotarod test) compared to vehicle: highest doses tested (VPA 400, DID 90 mg kg^−1 i.p.), p>0.05, n=6; for neurological motor dysfunction or sedation at the highest drug dose tested: normal rats
Method: On the day of testing, a baseline response was obtained, and rats were subsequently administered drug or vehicle. […] In addition, we examined our rats individually for signs of motor dysfunction and sedation as assessed by posture and gate during spontaneous and induced movement, grooming, chewing, stepping reflex, and startle reflex evoked by tapping on the cage.
For each drug and dose, attenuation of tactile allodynia (threshold measured in g) was measured. […] These areas under the response curve values for every group of rats per dose were evaluated against vehicle treatment using the nonparametric Wilcoxon one tailed test (dose of drug tested vs. vehicle on the same treatment). […] A p value <0.05 was considered statistically significant.

[3] = DID 40 mg kg^−1 i.p., plasma, SNL operated rats

Row | Compound | minimal plasma concentration associated with the antiallodynic effect ([1]; VPA 300 mg kg^−1 i.p.) [mg/L] | CL/F ([1]; plasma, 300 mg/kg) [mL/min/kg] | Cmax ([1]; plasma, 300 mg/kg) [µg/mL] | MRT ([1]; plasma, 300 mg/kg) [h] | Tmax ([1]; plasma, 300 mg/kg) [h] | half-life ([1]; plasma, 300 mg/kg) [h] | motor performance, time to fall off the rotarod ([2]; VPA 400 mg kg^−1 i.p., 60 min after dosing) [s] | effect on motor performance (rotarod test) compared to vehicle [2] | neurological motor dysfunction or sedation at the highest drug dose tested [2] | minimal plasma concentration associated with the antiallodynic effect ([1]; DID 40 mg kg^−1 i.p.) [mg/L] | Vβ/F [1, 3] [L/kg] | CL/F [1, 3] [mL/min/kg] | Cmax [1, 3] [µg/mL] | MRT [1, 3] [h] | Tmax [1, 3] [h] | half-life [1, 3] [h] | motor performance, time to fall off the rotarod ([2]; DID 90 mg kg^−1 i.p., 120 min after dosing) [s]
1 | CCCC(CCC)C(=O)O [VPA, Valproic acid, reference compound] | 125 | 3.33 | 515 | 5.8 | 0.5 | 4.6 | 96.8 ± 23.7 | no significant effect | not sufficient to cause neurological motor dysfunction or sedation |  |  |  |  |  |  |  | 
2 | CC(C)C(C(N)=O)C(C)C [DID, diisopropylacetamide] |  |  |  |  |  |  |  | no significant effect | not sufficient to cause neurological motor dysfunction or sedation | 7 | 1.2 | 8.33 | 28 | 2.4 | 0.25 | 1.5 | 103.8 ± 22.3

Source: patent US20100160443A1, “COMPOUNDS USEFUL FOR TREATING NEUROLOGICAL DISORDERS” (Yissum Research Development Company of The Hebrew …, priority 2003, published 2010)
